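Assay format: 96-well plates, 48-hour exposure. GI50 marks 50% less growth.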 Active and inactive are the calls of the source. No stated cut-off is given here; in the data, active = GI50 up to about 1.1 µM and inactive = higher.
Legend:
Test in all cases: DTP human tumour cell line panel, 48 h
CAKI-1 = test system: CAKI-1
CCRF-CEM = test system: CCRF-CEM
EKVX = test system: EKVX
HL-60 = test system: HL-60
HOP-62 = test system: HOP-62
HOP-92 = test system: HOP-92
KM-20L2 = test system: KM-20L2
LOX IMVI = test system: LOX IMVI
MOLT-4 = test system: MOLT-4
Malme-3M = test system: Malme-3M
NCI-H226 = test system: NCI-H226
NCI-H23 = test system: NCI-H23
OVCAR-5 = test system: OVCAR-5
SK-OV-3 = test system: SK-OV-3
SN12C = test system: SN12C
COLO 205 = test system: COLO 205
RPMI-8226 = test system: RPMI-8226
U-251 = test system: U-251

Measured: GI50

C(=N\Nc1ccccc1)/c1nc2ccccc2nc1/C=N/Nc1ccccc1
inactive: CAKI-1 7.71 µM | CCRF-CEM 23.6 µM | EKVX 22.1 µM | HL-60 31 µM | HOP-62 15.9 µM | HOP-92 17.5 µM | KM-20L2 8.73 µM | LOX IMVI 9.25 µM | MOLT-4 13.2 µM | Malme-3M 24.9 µM | NCI-H226 18 µM | NCI-H23 13.3 µM | OVCAR-5 27 µM | SK-OV-3 22 µM | SN12C 16.2 µM

COc1cc(OC)c(C2CC=Cc3c(OC)cc(OC)c(OC)c32)cc1OC (configuration not stated)
inactive: CAKI-1 > 100 µM | CCRF-CEM > 100 µM | COLO 205 > 100 µM | EKVX > 100 µM | HL-60 > 100 µM | HOP-62 > 100 µM | HOP-92 > 100 µM | KM-20L2 > 100 µM | LOX IMVI > 100 µM | MOLT-4 > 100 µM | Malme-3M > 100 µM | NCI-H226 > 100 µM | NCI-H23 > 100 µM | OVCAR-5 > 100 µM | RPMI-8226 > 100 µM | SK-OV-3 > 100 µM | SN12C > 100 µM | U-251 > 100 µM

Cc1cccc(C)c1CO
inactive: CAKI-1 > 100 µM | CCRF-CEM > 100 µM | COLO 205 > 100 µM | EKVX > 100 µM | HL-60 > 100 µM | HOP-62 > 100 µM | HOP-92 > 100 µM | KM-20L2 > 100 µM | LOX IMVI > 100 µM | MOLT-4 > 100 µM | Malme-3M > 100 µM | NCI-H226 > 100 µM | NCI-H23 > 100 µM | OVCAR-5 > 100 µM | RPMI-8226 > 100 µM | SK-OV-3 > 100 µM | SN12C > 100 µM | U-251 > 100 µM

CCCCCC/C(CC(=O)CCC(=O)NCCc1ccccc1)=N\Nc1ccc([N+](=O)[O-])cc1[N+](=O)[O-]
inactive: CAKI-1 > 100 µM | CCRF-CEM 22.1 µM | COLO 205 64.3 µM | EKVX 38.7 µM | HL-60 27.9 µM | HOP-62 > 100 µM | HOP-92 41.7 µM | KM-20L2 > 100 µM | LOX IMVI 34.7 µM | MOLT-4 21.4 µM | Malme-3M > 100 µM | NCI-H226 60.4 µM | NCI-H23 45 µM | OVCAR-5 > 100 µM | RPMI-8226 27 µM | SK-OV-3 > 100 µM | SN12C 82 µM | U-251 97.1 µM

COC1=CC(C2c3cc4c(cc3[C@@H](Nc3ccc(F)cc3)C3COC(=O)[C@H]23)OCO4)=CC(=O)C1=O (some centres not stated)
inactive: CAKI-1 4.48 µM | CCRF-CEM 2.49 µM | COLO 205 15.7 µM | EKVX 20.5 µM | HL-60 2.11 µM | HOP-62 1.61 µM | HOP-92 6.92 µM | KM-20L2 25.7 µM | LOX IMVI 7.78 µM | Malme-3M 13.7 µM | NCI-H226 11.1 µM | NCI-H23 2.88 µM | OVCAR-5 19.9 µM | RPMI-8226 10.5 µM | SK-OV-3 4.46 µM | SN12C 4.32 µM | U-251 2.78 µM
active: MOLT-4 0.524 µM
